Data set [1] can be described thus: Parallel artificial membrane permeability assay (PAMPA). Format: in vitro ADME. The protocol: The membrane permeability of THY1773 was measured using a parallel artificial membrane permeability assay (PAMPA) Evolution instrument (Pion Inc.). A “sandwich” plate consisting of a donor bottom plate with stir bars and an acceptor filter plate was used for the experiment. A donor plate was prepared by the addition of THY1773 to diluted PRISMA HT at pH 6.2 (final concentration of 12.5 μmol/L). An acceptor plate was coated with GIT‐0 lipid solution, followed by the addition of acceptor sink buffer (pH 7.4). After incubation for 4 h at room temperature, the concentrations of THY1773 in the reference, donor, and acceptor solutions were measured with a UV plate reader. The apparent permeability (Papp) was calculated using the PAMPA Evolution software (version 3.1; Pion Inc.).
In general terms: In PAMPA a lipid-coated filter parts donor from acceptor wells.

Data set [2] can be described thus: Plasma protein binding by equilibrium dialysis, dog plasma. The format is in vitro ADME. The following applies: 300 ng/ml. The protocol: The plasma protein binding of THY1773 in rats, dogs, and humans was evaluated by an equilibrium dialysis method using a 96‐well equilibrium dialysis plate (HTDialysis) with a 12–14 kDa cut‐off dialysis membrane. THY1773 was dissolved in dimethyl sulfoxide, and spiked with rat, dog, or human plasma at a final concentration of 300 ng/ml. An aliquot of plasma containing THY1773 and sodium phosphate buffer (pH 7.4) was added into the donor side and the receiver side of each designated well, respectively. After incubation for 6 h at a rate of 50 oscillation/min at 37°C in an air incubator, an aliquot of each side of each well was collected and mixed with acetonitrile/methanol (9:1, vol/vol) containing the IS. Each sample was centrifuged at 3974 × g for 10 min at 4°C to remove the precipitated proteins, and the resultant supernatants were subjected to LC‐MS/MS analysis. The protein binding (%) was calculated using the Boudinot formula (Boudinot & Jusko, 1984).
Background: In equilibrium dialysis free small molecules cross a membrane that holds back macromolecules.

Data set [3] can be described thus: Metabolic stability in rat liver microsomes. Format: in vitro ADME. To be noted: 1 μmol/L. As to the method:
The oxidative metabolism of THY1773 was evaluated in rat and dog liver microsomes. THY1773 (1 μmol/L) was incubated with pooled liver microsomes (0.25 mg protein/ml) in sodium–potassium phosphate buffer (pH 7.4) consisting of 100 mmol/L sodium phosphate, 100 mmol/L potassium chloride, 2.5 mmol/L magnesium chloride (MgCl2), 1.5 mmol/L glucose‐6‐phosphate (G‐6‐P), and 0.18 units/ml G‐6‐P dehydrogenase (G‐6‐PDH). The reactions were initiated by the addition of β‐nicotinamide–adenine dinucleotide phosphate, oxidized form (NADP^+, 0.16 mmol/L), and incubated for 10, 20, 30, 40, 50, and 60 min. […] The intrinsic clearance (CLint) was calculated by the substrate depletion method described by Naritomi et al. (2001).
Since the CLliver was underestimated in rats and dogs from CLint in liver microsomes, the ratio of observed in vivo CLint and predicted CLint was calculated as the empirical scaling factor (ESF) for the extrapolation of CLliver from in vitro data. […] The total plasma clearance (CLtotal) was calculated by Equation (4): (4) CLtotal=QH×fu×(CLint/fu,mic)/QH+(fu/Rb)×(CLint/fu,mic)+CLrenal where QH is hepatic blood flow, fu is the free fraction in plasma, fu,mic is the fraction unbound in HLMs, Rb is blood‐to‐plasma ratio, and CLrenal is renal clearance. The fu,mic value was calculated using the Simcyp population based simulator (Version 16 R1; Simcyp Ltd.). […]
(In general: Microsomes from liver hold many membrane-bound enzymes, among them those of drug oxidation.)

Data set [4] can be described thus: CLint in human liver microsomes (reaction phenotyping, no inhibitor). The format is in vitro ADME. To be noted: HLMs. The protocol:
(§1) Reaction phenotyping using cDNA expressed recombinant human CYP isoforms, CYP1A2, CYP2B6, CYP2C8, CYP2C9, CYP2C19, CYP2D6, and CYP3A4, was conducted. Each recombinant enzyme (100 pmol/ml) in potassium phosphate buffer (pH 7.4; 100 mmol/L for CYP3A4, 50 mmol/L for the others) was preincubated with [^3H]THY1773 (10 μmol/L) at 37°C for 5 min. The reactions were initiated by the addition of NADPH‐generating system (1 mmol/L NADP^+, 5 mmol/L G‐6‐P, 1 unit/ml G‐6‐PDH, and 5 mmol/L MgCl2) and incubated for 0 or 60 min. The reactions were terminated by the addition of an equal volume of acetonitrile/methanol (9:1, vol/vol), followed by centrifugation at 1650 × g for 10 min at 4°C. An aliquot of the supernatant was subjected to an Agilent 1200 HPLC system (Agilent Technologies, Inc.) equipped with a radiochemical flow detector (Radiomatic 625TR; Perkin Elmer, Inc.), and formation of metabolites was evaluated. […] The CLint was calculated by the method as described previously under metabolic stability in animal liver microsomes, and the fraction metabolized (fm) was calculated by Equation (1): (1) fm=1−(CLint, with inh/CLint) where CLint is intrinsic clearance without specific inhibitor and CLint,with inh is intrinsic clearance in the presence of specific inhibitor.

A further data set has as its system CYP3A. In words: Reaction phenotyping in HLMs with ketoconazole. The format is in vitro ADME, human. As to the method:
as §1

The results in this text go back to paper PMC8252455, “Prediction of a clinically effective dose of THY1773, a novel V 1B receptor antagonist, based on preclinical data” (Biopharmaceutics & Drug Disposition, 2021).

Marks after values point to notes of the source that are not given here.

As to `CC(C)NC(=O)Cn1c(-c2cccc(Cl)c2)nn(-c2ccc(CCN3CCOCC3)cc2)c1=O` [THY1773], the “Papp in PAMPA” value in data set [1] (donor pH 6.2, 12.5 μmol/L, 4 h, room temperature) is on record as 128.9 10^−6 cm/s. Further, the “Permeability in the gut (assessment from PAMPA)” value in data set [1] (pH 6.2) is reported as “high permeability”. The Plasma protein binding in data set [2] was 89.6%. Moreover, in data set [3], the “CLint in liver microsomes” value is recorded as 22.0 μL/min/mg protein. The CLint in data set [4] (500 nmol/L, no inhibitor) is 11.2 ± 0.898 µL/min/mg; in the data set on CYP3A (with ketoconazole 1 μmol/L, mean of duplicate), 0.961 ^a μl/min/mg. Also, the “CLint (PBPK input, Model 1)” value in data set [4] (experimental data) is listed as 11.2 (Model 1) μl/min/mg protein. The “fm (fraction metabolized)” value with CYP3A (by CYP3A, ketoconazole 1 μmol/L) was found to be 0.914.
